Literature values as cited in patent US7858602B2, “Therapeutic and prophylactic uses of cell specific carbonic anhydrase enzymes in treating aging disorders due to oxidative stress and as growth factors of stem cells” (priority 2000, dated 2010).

Key:
[1] = test system: CA; conditions: in vitro and in vivo
[2] = test system: carbonic anhydrase VI (CA-VI); conditions: orally administered, patients with CA-VI deficiency
[3] = test system: gastric acid output
[4] = test system: sympathetic nerve terminals
[5] = test system: human synovial cells and synovial tissue cultures
[6] = test system: synovial connective tissue fibroblast
[7] = test system: muscle fibroblast; conditions: exposure to CA III

Molecule	effect on CA [1]	Prostaglandin PGE2 production [5]	hyaluronic acid production [5]	nitric oxide production [5]	further results
CCCCC[C@H](O)/C=C/[C@H]1[C@H](O)CC(=O)[C@@H]1CCCCCCC(=O)O [prostaglandin E1]	inhibit				
[Zn] [Zinc]					stimulation of synthesis/secretion of CA-VI, treatment result [2]: successful
CCCCC[C@H](O)/C=C/[C@H]1[C@H](O)CC(=O)[C@@H]1C/C=C\CCCC(=O)O [prostaglandin E2, Prostaglandin E2]	inhibit				gastric acid output [3]: inhibit; egress of norepinephrine from sympathetic nerve terminals [4]: inhibits
CNCCC(Oc1ccc(C(F)(F)F)cc1)c1ccccc1 (stereo not drawn) [Fluoxetine]		inhibit	inhibit	inhibit	
CN(C)CCC=C1c2ccccc2CCc2ccccc21 [aminitriptylline]		inhibit	inhibit	inhibit	
CA III: Carbonic anhydrase III isolated from adult human skeletal muscle (protein, UniProt P07451 2-260, looked up) Carbonic anhydrase 3: AKEWGYASHNGPDHWHELFPNAKGENQSPVELHTKDIRHDPSLQPWSVSYDGGSAKTILNNGKTCRVVFDDTYDRSMLRGGPLPGPYRLRQFHLHWGSSDDHGSEHTVDGVKYAAELHLVHWNPKYNTFKEALKQRDGIAVIGIFLKIGHENGEFQIFLDALDKIKTKGKEAPFTKFDPSCLFPACRDYWTYQGSFTTPPCEECIVWLLLKEPMTVSSDQMAKLRSLLSSAENEPPVPLVSNWRPPQPINNRVVRASFK					increase of synovial connective tissue fibroblast on exposure to CA III ([6]; cell culture): 2 to 12 fold; hyaluronic acid synthesis ([6]; cell culture, exposure to CA III): increased; increase in synovial fibroblasts ([6]; exposure to CA III): 16-70%; increase in muscle fibroblast [7]: 20-45%
